Measured values taken from patent US7390789B2, “Thio-containing inhibitors of aminopeptidase P, and compositions thereof” (priority 2005, dated 2008).
Where two headings read alike, the source gives them in different places.

Tests used:
[1] = biological target: T1, rat membrane aminopeptidase P (Rattus norvegicus, UniProt Q99MA2); assay: Inhibition of purified rat membrane aminopeptidase P with Arg-Pro-Pro substrate; format: biochemical
T1 sequence (Q99MA2 23-650): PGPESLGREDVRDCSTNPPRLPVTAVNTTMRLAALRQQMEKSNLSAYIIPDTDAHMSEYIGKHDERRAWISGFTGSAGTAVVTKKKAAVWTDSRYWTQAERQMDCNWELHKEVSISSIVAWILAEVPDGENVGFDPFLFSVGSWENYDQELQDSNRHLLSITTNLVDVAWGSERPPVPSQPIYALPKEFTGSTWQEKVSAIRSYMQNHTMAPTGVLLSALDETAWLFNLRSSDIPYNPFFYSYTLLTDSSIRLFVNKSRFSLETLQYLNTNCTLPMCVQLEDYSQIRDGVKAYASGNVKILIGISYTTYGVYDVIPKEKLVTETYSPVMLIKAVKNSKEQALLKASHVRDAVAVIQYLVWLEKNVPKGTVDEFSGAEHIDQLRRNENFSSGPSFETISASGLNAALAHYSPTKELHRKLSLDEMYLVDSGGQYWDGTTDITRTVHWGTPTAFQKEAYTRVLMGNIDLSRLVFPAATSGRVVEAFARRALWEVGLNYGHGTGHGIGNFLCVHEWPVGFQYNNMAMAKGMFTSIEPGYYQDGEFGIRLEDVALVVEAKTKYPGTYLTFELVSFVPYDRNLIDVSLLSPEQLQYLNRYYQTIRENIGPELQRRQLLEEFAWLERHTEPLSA
Protocol: The IC50 for each of compounds IV-VIII was determined as the concentration in nmoles/liter (nM) required to inhibit rat membrane aminopeptidase P by 50% using Arg-Pro-Pro (0.5 mM) as the substrate. […] See Maggiora et al.,

isolated perfused heart = conditions: cited from earlier work
bradykinin degradation = conditions: isolated perfused rat heart and lung; cited from earlier work
aminopeptidase P = conditions: cited from earlier work
[2] = system: bradykinin vasodepressor response; conditions: cited from earlier work
myocardial infarct size = conditions: intact rats subjected to regional cardiac ischemia; cited from earlier work
blood pressure = conditions: rat model of severe hypertension; cited from earlier work
[3] = purified rat membrane aminopeptidase P, Arg-Pro-Pro (0.5 mM) as the substrate, read-out: Binding affinity (IC50 in nanomolar)

Structure (SMILES): CC(NC(=O)C1CCCN1C(=O)C1CCCN1C(=O)CS)C(N)=O (stereo not drawn) [Analog 1, N-mercaptoacetyl-Pro-Pro-Ala-NH2]
- IC50 ([1]; rat mAPP, read-out: IC50): 3400 nM

Structure (SMILES): CCCCC(S)C(=O)N1CCCC1C(=O)N1CCCC1C(=O)NC(C)C(N)=O [Analog 2, N-[(R)-2-mercaptohexanoyl]-Pro-Pro-Ala-NH2]
- IC50 [1, 3]: 130 nM

Structure (SMILES): CCCCC(S)C(=O)N1CCCC1C(=O)N1C(C)CCC1C(=O)NC(C)C(N)=O [Analog 3, N-[(R)-2-mercaptohexanoyl]-Pro-MePro-Ala-NH2]
- IC50 [1, 3]: 170 nM

Structure (SMILES): O=C(O)CCNC(=O)[C@@H]1CCCN1C(=O)[C@@H]1CCCN1C(=O)[C@@H](S)C1CCCCC1 [Analog 4, N-[(S)-2-mercapto-2-cyclohexylacetyl]-Pro-Pro-β-Ala-OH]
- IC50 [1, 3]: 87 nM

Structure (SMILES): CCC(C)C(S)C(=O)N1CCCC1C(=O)N1CCCC1C(=O)NC(C)C(N)=O [Analog 5, N-[(2S, 3S)-2-mercapto-3-methylpentanoyl]-Pro-Pro-Ala-NH2]
- IC50 [1, 3]: 10 nM

Structure (SMILES): C[C@H](NC(=O)[C@@H]1CCCN1C(=O)[C@@H]1CCCN1C(=O)[C@@H](O)[C@H](N)Cc1ccccc1)C(N)=O [apstatin]
- reduction of reperfusion-induced ventricular fibrillation (isolated perfused heart): by a similar amount
- reduction of cardiac damage (isolated perfused heart; heart attack model): 74%
- bradykinin degradation (bradykinin degradation): reduce bradykinin degradation
- potency (aminopeptidase P): micromolar
- effect on blood pressure-lowering effects of intravenously administered bradykinin ([2]; rat, in vivo, iv): enhanced
- dose at which bradykinin potentiation has been observed ([2]; rats, intravenously, administered over a one hour period): 0.08 to 0.8 mg/kg
- myocardial infarct size (myocardial infarct size): substantially reduced myocardial infarct size
- blood pressure reduction with an ACE inhibitor (blood pressure): acted synergistically with an ACE inhibitor to reduce blood pressure to normal
